Laboratory results taken from patent publication US8592456B2 (4SC Discovery GmbH, priority 2011, dated 2013).
Where two headings read alike, the source gives them in different places.

Assays:
Format in all cases: cell-based
[1] = system: PBMC (T cell proliferation); experiment: T cell proliferation assay, PHA-stimulated human PBMC (BrdU ELISA)
In short: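 Healthy-donor human PBMC, Ficoll-isolated, seeded 1×10^5 cells/well in RPMI1640 with 10% dialyzed FCS, stimulated with 2 μg/ml PHA alongside test compound. Proliferation read after 48 hours by BrdU ELISA.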

[2] = system: IL-17FF; experiment: IL-17FF production by PHA-stimulated human PBMC (IL-17F ELISA)
Protocol: (§1) Analysis of Proliferation of and Cytokine Production by Human PBMC Stimulated with PHA
(§2) Peripheral blood mononuclear cells (PBMC) from healthy human donors were purified using Accuspin™ System-Histopaque-1077 (Sigma) according to the protocol recommended by the manufacturer. Purified PBMC were then washed twice with phosphate-buffered saline (PBS) and resuspended in RPMI1640 culture medium supplemented with 10% dialyzed heat inactivated fetal calf serum, 1.5 mM L-glutamine, 100 U penicillin/ml, and […] (all from PAN Biotech, Aidenbach, Germany). For stimulation, PBMC were seeded at 1×10^5 cells/well, activated with 2 μg/ml phytohaemagglutinin (PHA, Sigma) and incubated with the test compounds for 48 hours. IL-17A, IL-17F and INF-γ were then determined in the culture supernatant using a Luminex BioPlex system, following the manufacturer's instructions (BioRad, Munich, Germany). For screening, compounds were used at 10, 1, 0.1 and 0.01 μM. To determine the IC50, compounds were titrated semilogarithmically.
(§3) Cytokines were determined in the aforementioned culture supernatant using the following methods: IL-17AA/AF was measured using the Luminex BioPlex system (BioRad, Munich, Germany); IL-17AA using the human homodimer IL-17A ELISA Ready Set Go Kit from eBioscience (Frankfurt, Germany); IL-17FF using the human IL-17F ELI-Pair from Hölzel DiagnosticaGmBH (Köln, Germany); and IFN-γ using the OptElA human IFN-g ELISA from BD Bioscience (Heidelberg, Germany), all following the manufacturer's instructions.

[3] = system: IFNγ; experiment: IFN-γ production by PHA-stimulated human PBMC (IFN-g ELISA); conditions: 48 h
Protocol: as §1
as §2, with “For stimulation, PBMC were seeded at 1×10^5 cells/well, activated with 2 μg/ml phytohaemagglutinin (PHA, Sigma) and incubated with the test compounds for 48 hours.” left out, “For screening, compounds were used at 10, 1, 0.1 and 0.01 μM. To determine the IC50, compounds were titrated semilogarithmically.” left out
as §3

[4] = Homo sapiens, 48 h, read-out: IC50 (Tcell proliferation)
[5] = human PBMC, 2 μg/ml PHA, 48 hours, BrdU, read-out: D: IC50 (Tcell proliferation)

| Structure (SMILES) | IC50 [1, 5] | also measured |
| --- | --- | --- |
| Cc1csc(-c2c(-c3c(F)cccc3Cl)noc2-c2cnn(-c3cccc(Cl)c3)c2C(F)(F)F)n1 [Example I-4] |  | IC50 [1, 4]: < 10 nM; IC50 ([2]; Homo sapiens, PBMC, 48 h, read-out: IC50 (IL-17FF)): < 10 nM; IC50 ([3]; read-out: IC50 (IFNγ)): < 10 nM |
| O=C(O)c1c(-c2c(F)cccc2Cl)noc1-c1cnn(-c2cccc(Cl)c2)c1C(F)(F)F [Example B-18, 3-(2-chloro-6-fluorophenyl)-5-(1-(3-chlorophenyl)-5-(trifluoromethyl)-1H-pyrazol-4-yl)isoxazole-4-carboxylic acid] |  | IC50 ([2]; human PBMC, 2 μg/ml PHA, 48 hours, read-out: B: IC50 (IL-17FF)): 1000 to 10000 nM |
| CCOC(=O)c1c(-c2c(F)cccc2Cl)noc1-c1cnn(-c2ccccc2Cl)c1C(F)(F)F [Example B-33, ethyl 3-(2-chloro-6-fluorophenyl)-5-(1-(2-chlorophenyl)-5-(trifluoromethyl)-1H-pyrazol-4-yl)isoxazole-4-carboxylate] |  | IC50 ([1]; Homo sapiens, 48 h, read-out: D: IC50 (Tcell proliferation)): 100 to 1000 nM; IC50 ([2]; Homo sapiens, PBMC, 48 h, read-out: B: IC50 (IL-17FF)): 100 to 1000 nM; IC50 ([3]; read-out: C: IC50 (IFNγ)): 100 to 1000 nM |
| Fc1cccc(Cl)c1-c1noc(-c2cnn(-c3ccccc3Cl)c2C(F)(F)F)c1-c1nccs1 [IB-29, 3-(2-chloro-6-fluorophenyl)-5-(1-(2-chlorophenyl)-5-(trifluoromethyl)-1H-pyrazol-4-yl)-4-(thiazol-2-yl)isoxazole] |  | IC50 [1, 4]: 1000 to 10000 nM |
| CCOC(=O)c1c(-c2c(F)cccc2Cl)noc1-c1cnn(-c2ccccc2[N+](=O)[O-])c1C(F)(F)F [Example B-95, 3-(2-chloro-6-fluorophenyl)-5-(1-(2-nitrophenyl)-5-(trifluoromethyl)-1H-pyrazol-4-yl)isoxazole-4-carboxylate] | 100 to 1000 nM |  |
| COC(=O)c1c(-c2c(F)cccc2Cl)noc1-c1cnn(CC(C)C)c1C(F)(F)F [Example 28] | 100 to 1000 nM |  |
| CCOC(=O)c1c(-c2c(F)cccc2Cl)noc1-c1cnn(-c2cccc(S(N)(=O)=O)c2)c1C(F)(F)F [Example B-43, ethyl 3-(2-chloro-6-fluorophenyl)-5-(1-(3-sulfamoylphenyl)-5-(trifluoromethyl)-1H-pyrazol-4-yl)-isoxazole-4-carboxylate] | 1000 to 10000 nM |  |
| COC(=O)c1c(-c2c(F)cccc2Cl)noc1-c1cnn(-c2cccc(Cl)c2Cl)c1C(F)(F)F [Example 4, methyl 3-(2-chloro-6-fluorophenyl)-5-(1-(2,3-dichlorophenyl)-5-(trifluoromethyl)-1H-pyrazol-4-yl)isoxazole-4-carboxylate] | 1000 to 10000 nM |  |
| CSC(=O)c1c(-c2c(F)cccc2Cl)noc1-c1cnn(-c2ccccc2F)c1C(F)(F)F [Example 130, S-methyl 3-(2-chloro-6-fluorophenyl)-5-(1-(2-fluorophenyl)-5-(trifluoromethyl)-1H-pyrazol-4-yl)isoxazole-4-carbothioate] | < 10 nM |  |
| CCOC(=O)c1c(-c2c(Cl)cncc2Cl)noc1-c1cnn(-c2ccccn2)c1C(F)(F)F [Example B-5, ethyl 3-(3,5-dichloropyridin-4-yl)-5-(1-(pyridin-2-yl)-5-(trifluoromethyl)-1H-pyrazol-4-yl)isoxazole-4-carboxylate] | 1000 to 10000 nM |  |
| Fc1cccc(Cl)c1-c1noc(-c2cnn(-c3ccncc3)c2C(F)(F)F)c1Br [Example B-83, 4-bromo-3-(2-chloro-6-fluorophenyl)-5-(1-(pyridin-4-yl)-5-(trifluoromethyl)-1H-pyrazol-4-yl)isoxazole] | 1000 to 10000 nM |  |
| CCOC(=O)c1c(-c2onc(-c3c(F)cccc3Cl)c2C(=O)OC)cnn1-c1cccc(Cl)c1 [Example 10, methyl 3-(2-chloro-6-fluorophenyl)-5-(1-(3-chlorophenyl)-5-(ethoxycarbonyl)-1H-pyrazol-4-yl)isoxazole-4-carboxylate] | 10 to 100 nM |  |
| Fc1cccc(-n2ncc(-c3onc(-c4c(F)cccc4Cl)c3-c3ccoc3)c2C(F)(F)F)c1 [Example I-13, 3-(2-chloro-6-fluorophenyl)-5-(1-(3-fluorophenyl)-5-(trifluoromethyl)-1H-pyrazol-4-yl)-4-(furan-3-yl)isoxazole] |  | IC50 ([1]; PHA-stimulated human PBMC, 48 hours, BrdU, column D, activity classes 1-4, read-out: IC50 (Tcell proliferation)): 1000 to 10000 nM |
| CCOC(=O)c1c(-c2ccncc2F)noc1-c1cnn(-c2cccnc2)c1C(F)(F)F [Example B-17, ethyl 3-(3-fluoropyridin-4-yl)-5-(1-(pyridin-3-yl)-5-(trifluoromethyl)-1H-pyrazol-4-yl)isoxazole-4-carboxylate] | 1000 to 10000 nM |  |
